{
  "source": "paper PMC9406419",
  "about": "“OATD-02 Validates the Benefits of Pharmacological Inhibition of Arginase 1 and 2 in Cancer” (Cancers, 2022)",
  "system": "CT26 tumours",
  "experiment": "Syngeneic CT26 model, combination with epacadostat and anti-PD-L1 antibody",
  "format": "in vivo, mouse",
  "conditions": "suboptimal doses: OATD-02 50 mg/kg PO BID; epacadostat 30 mg/kg PO BID; anti-PD-L1 2.5 mg/kg IP days 8, 10, 12, 14, 16",
  "protocol": "CT26 and K562 in vivo experiments were conducted at Molecure SA. All experimental procedures were approved by the 1st Local Ethics Committee in Warsaw (Poland). For the syngeneic CT26 model, 7–8-week old BALB/c females (n = 9–18 per group, BALB/cAnNCrl, Charles River Laboratories) were injected subcutaneously in the right flank with 5 × 10^5 CT26 cells. […] Anti-PD-L1 antibody (InVivoPlus anti-mouse PD-L1, clone 10F.9G2, BioXCell, lot 615416D1) was injected intraperitoneally at 2.5 mg/kg on days: 8, 10, 12, 14 and 16 post tumour cells inoculation. Control groups received vehicle (saline) or isotype antibody (InVivoPlus rat IgG2b, anti-KLH, BioXCell, lot 629816D1). For the xenograft K562 model, 7–8 week-old athymic nude mice (n = 8–11 per group, Crl:NU(NCr)-Foxn1^nu, Charles River Laboratories) or NK cell-deficient Fox Chase SCID Beige mice (n = 10–12 per group, CB17.Cg-Prkdc^scidLyst^bg-J/Crl, Charles River Laboratories) were injected subcutaneously in the right flank with 1 × 10^7 K562 cells. […] Tumour volume measured by a digital calliper (width × length × depth × π/6) was recorded three times per week. Animals were euthanized when tumours were necrotized or volume exceeded 2000 mm^3. Renca in vivo efficacy study was performed at Crown Biosciences Inc. (Taicang, China). […] Tumour volumes (length × width^2 × 0.5) were measured twice per week. […]",
  "data": [
    {"smiles": "NS(=O)(=O)NCCNc1nonc1C(=NO)Nc1ccc(F)c(Br)c1", "note": "[epacadostat, reference compound]", "values": [
      {"measurement": "TGI, CT26 tumor growth inhibition - day 24", "value": 41, "unit": "%"}
    ]}
  ]
}
